From patent publication US4317768A, “Dihydropyridine derivatives as stabilizers for vinyl chloride polymers” (priority 1977, dated 1982)

Assays:
[1] = Antioxidant power on a polyvinyl chloride resin, Metrastat oven, 210° C.
Experimental: (§1) By direct comparison, on a polyvinyl chloride resin, of the antioxidant power of Compound 1 of the invention and that of an antioxidant known as one of the most valuable and frequently used in polyvinyl chloride, namely 2,6-diterbutyl-4-methyl-phenol.
(§2) The antioxidant power of Compound 1 was compared to that of 2,6-diterbutyl-4-methyl-phenol (Compound 2) by using the following resin:
The same trials were carried out in a Metrastat oven at 210° C.

[2] = Antioxidant power on a polyvinyl chloride resin, GARDNER method, 185° C.
Experimental: as §1, §2
The study was carried out according to the GARDNER method, the samples being removed from an oven at 185° C. every 10 minutes over a period of 80 minutes.
The signs + and - have the same meanings as in the previous table and > 2 means that the coloration lies between 2 and 2+.

[3] = as above; remark: listed apart in the source
[4] = Polarographic study of the oxidation potential; type: physicochemical; settings: acetonitrile, 0.1 M lithium perchlorate, vitrous carbon electrode, calomel reference
Description: By a polarographic study of their oxidation potential, compared to well-known antioxidants such as 2,6-diterbutyl-4-methyl-phenol, 2-terbutyl-4-methoxy-phenol, 4-methoxy-phenol and hydroquinone.
Reference electrode: Calomel electrode containing a saturated solution of anhydrous lithium perchlorate as bridge liquid.
Working electrode: Vitrous carbon rotating electrode (2,500 r.p.m.)
Counter-electrode: Platinum electrode
Acetonitrile containing less than 0.1% of water and presenting no polarographic waves between -2.5 V and +2.5 V.
Anhydrous lithium perchlorate containing less than 1% of water.
A 0.1 M solution of lithium perchlorate in acetonitrile, treated and preserved on a 4 A molecular sieve.
Amplitude of exploration: 0 to 2 V
Speed of exploration: 10 mV/second
Sensitivity: 1.25 μA to 50 μA
Mean concentration: about 0.3×10^-3 mol/liter
Between each measurement, the vitrous carbon electrode and the platinum electrode were carefully cleaned with Joseph paper.

Cc1cc(C(C)(C)C)c(O)c(C(C)(C)C)c1 [Compound Z, 2,6-diterbutyl-4-methyl-phenol, reference compound]
time of burning (B) ([1]; 0.05 part): 38 ' | coloration, GARDNER scale ([1]; 0.05 part, 10 to 20 min): 2 | coloration, GARDNER scale ([1]; 0.05 part, 30 to 35 min): 10 | coloration, GARDNER scale ([1]; 0.05 part, 35 to 40 min): > 10 | time of burning (B) ([1]; 0.1 part): 39 ' | coloration, GARDNER scale ([1]; 0.1 part, 10 to 20 min): 2 | coloration, GARDNER scale ([1]; 0.1 part, 30 to 35 min): 11 | coloration, GARDNER scale ([1]; 0.1 part, 35 to 40 min): > 11 | time of burning (B) ([1]; 0.2 part): 39 ' | coloration, GARDNER scale ([1]; 0.2 part, 10 to 20 min): 2 | coloration, GARDNER scale ([1]; 0.2 part, 30 to 35 min): 11 | coloration, GARDNER scale ([1]; 0.2 part, 35 to 40 min): > 11 | time of burning (B) ([1]; 0.3 part): 39 ' | coloration, GARDNER scale ([1]; 0.3 part, 0 to 10 min): < 1 | coloration, GARDNER scale ([1]; 0.3 part, 25 to 30 min): 3 | coloration, GARDNER scale ([1]; 0.3 part, 30 to 35 min): 9 | coloration, GARDNER scale ([1]; 0.3 part, 35 to 40 min): < 10 | time of burning (B) ([1]; 0.4 part): 38 ' | coloration, GARDNER scale ([1]; 0.4 part, 10 to 20 min): 2 | coloration, GARDNER scale ([1]; 0.4 part, 20 to 25 min): 3 | coloration, GARDNER scale ([1]; 0.4 part, 30 to 35 min): 10 | coloration, GARDNER scale ([1]; 0.4 part, 35 to 40 min): > 10 | time of burning (B) ([1]; 0.5 part): 38 ' | coloration, GARDNER scale ([1]; 0.5 part, 10 to 20 min): 2 | coloration, GARDNER scale ([1]; 0.5 part, 20 to 25 min): 3 | time of burning (B) ([1]; 1.0 part): 38 ' | coloration, GARDNER scale ([1]; 1.0 part, 10 to 20 min): 2 | coloration, GARDNER scale ([1]; 1.0 part, 25 to 30 min): 5 | coloration, GARDNER scale ([1]; 1.0 part, 30 to 35 min): 11 | coloration, GARDNER scale ([1]; 1.0 part, 35 to 40 min): > 11 | colour of sheets, in words ([1]; from the time zero): pink-coloured sheets | coloration, GARDNER scale ([2]; 0.05 part, 0 min): > 1 | coloration, GARDNER scale ([2]; 0.05 part, 40 min): > 6 | coloration, GARDNER scale ([2]; 0.05 part, 50 min): 7 | coloration, GARDNER scale ([2]; 0.05 part, 60 min): 7 | coloration, GARDNER scale ([2]; 0.05 part, 70 min): 8 | coloration, GARDNER scale ([2]; 0.05 part, 80 min): Burnt | coloration, GARDNER scale ([2]; 0.1 part, 0 min): > 1 | coloration, GARDNER scale ([2]; 0.1 part, 30 min): > 5 | coloration, GARDNER scale ([2]; 0.1 part, 40 min): > 6 | coloration, GARDNER scale ([2]; 0.1 part, 50 min): 7 | coloration, GARDNER scale ([2]; 0.1 part, 60 min): 7 | coloration, GARDNER scale ([2]; 0.1 part, 70 min): 8 | coloration, GARDNER scale ([2]; 0.2 part, 0 min): > 1 | coloration, GARDNER scale ([2]; 0.2 part, 40 min): > 6 | coloration, GARDNER scale ([2]; 0.2 part, 50 min): 7 | coloration, GARDNER scale ([2]; 0.2 part, 60 min): 7 | coloration, GARDNER scale ([2]; 0.2 part, 70 min): 8 | coloration, GARDNER scale ([2]; 0.3 part, 20 min): > 2 | coloration, GARDNER scale ([2]; 0.3 part, 30 min): 6 | coloration, GARDNER scale ([2]; 0.3 part, 40 min): 7 | coloration, GARDNER scale ([2]; 0.3 part, 50 min): 8 | coloration, GARDNER scale ([2]; 0.3 part, 60 min): 8 | coloration, GARDNER scale ([2]; 0.4 part, 20 min): 3 | coloration, GARDNER scale ([2]; 0.4 part, 30 min): > 6 | coloration, GARDNER scale ([2]; 0.4 part, 50 min): 9 | coloration, GARDNER scale ([2]; 0.4 part, 60 min): 9 | coloration, GARDNER scale ([2]; 0.4 part, 70 min): 9 | coloration, GARDNER scale ([2]; 0.5 part, 20 min): 3 | coloration, GARDNER scale ([2]; 0.5 part, 30 min): > 6 | coloration, GARDNER scale ([2]; 0.5 part, 40 min): > 7 | coloration, GARDNER scale ([2]; 0.5 part, 60 min): 8 | coloration, GARDNER scale ([2]; 0.5 part, 70 min): 8 | coloration, GARDNER scale ([2]; 1.0 part, 20 min): > 3 | coloration, GARDNER scale ([2]; 1.0 part, 30 min): 8 | coloration, GARDNER scale ([2]; 1.0 part, 40 min): 8 | coloration, GARDNER scale ([2]; 1.0 part, 50 min): 8 | coloration, GARDNER scale ([2]; 1.0 part, 60 min): 9 | coloration, GARDNER scale ([2]; 1.0 part, 70 min): 9 | antioxidant power, Compound 1 vs Compound Z, in words [3]: no concentration in Compound Z gives the best results obtained with Compound 1 | Oxidation potential [4]: 1.11 ± 0.02 volts
